Measured values reported in US8680113B2, “BMI-1 protein expression modulators” (PTC Therapeutics, Inc., priority 2008, dated 2014).

Test system: Bmi-1
Experiment: Sandwich ELISA Assay (Bmi-1 ELISA in HT-1080 cells)
Assay type: cell-based, human
Protocol: Cell Seeding and Compound Treatment (Day 1):
HT-1080 cells were seeded at 8000 cells/well (50 uL) in 96-well tissue culture plates. After the cells become adherent (3-4 hours), 2× diluted stocks of compounds in 50 uL DMEM containing 1% DMSO (final DMSO concentration was 0.5%) were added and the plates were incubated at 37° C. under 5% CO2 for 40-48 hours
ELISA Plate First Antibody Preparation (Day 2):
The First Antibody (Millipore Mouse, monoclonal to mouse Bmi-1, clone F6, catalog #05-637) diluted to 2 ug/mL in PBS was added (100 uL) to each well of a Nunc MaxiSorp 96-well ELISA plate. The plate was covered with a plate seal and allowed to stand overnight.
Cell Lysate Preparation (Day 3):
Fresh 1× Lysis buffer was prepared on the day of the assay as follows: 1 mM EDTA, 150 mM NaCl, 0.5% Triton-X 100, 10 mM NaF, 20 mM B-Glycerophosphate, 1 mM DTT (in PBS, pH 7.2-7.4) and 1×HALT protease inhibitor cocktail (Pierce #78410).
1× Lysis Buffer (40 uL) was added to each well and the plate was shaken for 5-10 minutes on an orbital shaker to allow cell lysis, then Diluent (1% BSA in PBS in 0.5% NP40) (100 uL) was added to each well.
The Bmi-1 standard curve was prepared in Diluent at the following concentrations of protein: 8000, 4000, 2000, 1000, 500, 250, 125, 0 pg/mL The Bmi-1 Recombinant Protein Standard (Novus Biologicals PCGF4 Recombinant Protein (P01), catalog #H00000648-P01) used in the standard curve was stored at −80° C., and on first thaw, diluted to 10 ug/uL in Blocking Buffer (1% BSA in PBS; BSA: Fisher Scientific Catalog #1600-100) before being aliquoted and refrozen at −80° C. Aliquots can be kept at 4° C. and reused after first thaw, but only for 1-2 weeks. The Bmi-1 Recombinant Protein Standard contains a GST-fusion tag and thus will show up on western blots around 70 Kda.
The prepared ELISA plate was washed 3× with Wash Buffer (0.05% Tween-20 in PBS). The final wash was removed from the plate and the plate was blotted dry on paper towels. Blocking Buffer (300 uL) (1% BSA in PBS) was added per well. The plate was covered with a plate seal and incubated at room temperature for 1 hour. The blocked plate was washed 3× with Wash Buffer, the final wash was removed and the plate was blotted dry on paper towels. The previously prepared samples and standards were added (at 100 uL/well) and the plate was covered with a plate seal and incubated at 4° C. overnight.
The prepared ELISA plate was removed from 4° C., incubated at room temperature for 30 minutes, then washed and blotted dry as previously described for Day 3. The Second Antibody (Cell Signaling Rabbit anti-Bmi-1, Cat#2830) diluted to 1:600 in Blocking Buffer was added (100 uL) to each well, except as needed for background control wells. The plate was covered with a plate seal and incubated for 1.5 hrs at room temperature.
The ELISA plate was washed and blotted dry as previously described. The Third Antibody (Cell Signaling HRP conjugated anti-rabbit IgG (CellSignaling, Cat#:7074) diluted to 1:300 in Blocking Buffer was added (100 uL) to each well, except as needed for background control wells. The plate was incubated for 1 hr at room temperature.
The plate was washed and blotted dry as previously described, then prepared TMB substrate (TMB substrate kit, Pierce catalog #34021) (prepared by mixing kit reagents 1:1) (100 uL) was added per well. The plate was incubated for 20-30 minutes at room temperature in the dark, then Stop Solution (2 M sulfuric acid in water) (50 uL) was added per well. The plates were read at OD450 (experimental) and OD570 (reference).

Row | Structure (SMILES) | IC50 [µM]
1 | COc1ccc(Nc2nc(-c3cnc4ccc(Cl)cn34)cs2)cc1Cl [Cpd 109, 4-(6-chloroimidazo[1,2-a]pyridin-3-yl)-N-(3-chloro-4-methoxyphenyl)-1,3-thiazol-2-amine] | < 0.5
2 | COc1ccc(Nc2nc(-c3cnc4ccc(Cl)cn34)cs2)cc1F [Cpd 110, 4-(6-chloroimidazo[1,2-a]pyridin-3-yl)-N-(3-fluoro-4-methoxyphenyl)-1,3-thiazol-2-amine] | < 0.5
3 | Cc1nc2ccc(Cl)cn2c1-c1csc(Nc2ccc(Cl)c(Cl)c2)n1 [Cpd 111, 4-(6-chloro-2-methylimidazo[1,2-a]pyridin-3-yl)-N-(3,4-dichlorophenyl)-1,3-thiazol-2-amine] | < 0.5
4 | Cc1nc2ccc(Cl)cn2c1-c1csc(Nc2ccc(C(C)(C)C)cc2)n1 [Cpd 112, N-(4-tert-butylphenyl)-4-(6-chloro-2-methylimidazo[1,2-a]pyridin-3-yl)-1,3-thiazol-2-amine] | < 0.5
5 | Cc1nc2ccccn2c1-c1ccnc(Nc2ccc(Cl)cc2)n1 [Cpd 113, N-(4-chlorophenyl)-4-(2-methylimidazo[1,2-a]pyridin-3-yl)pyrimidin-2-amine] | < 0.5
6 | Cc1nc2ccccn2c1-c1ccnc(Nc2ccc(Br)cc2)n1 [Cpd 114, N-(4-bromophenyl)-4-(2-methylimidazo[1,2-a]pyridin-3-yl)pyrimidin-2-amine] | < 0.5
7 | COc1ccc(Nc2nccc(-c3c(C)nc4ncccn34)n2)cc1 [Cpd 115, N-(4-methoxyphenyl)-4-(2-methylimidazo[1,2-a]pyrimidin-3-yl)pyrimidin-2-amine] | < 0.5
8 | CCOc1ccc(Nc2nccc(-c3c(C)nc4ncccn34)n2)cc1 [Cpd 116, N-(4-ethoxyphenyl)-4-(2-methylimidazo[1,2-a]pyrimidin-3-yl)pyrimidin-2-amine] | < 0.5
9 | CC(=O)c1ccc(Nc2nccc(-c3c(C)nc4ccccn34)n2)cc1 [Cpd 117, 1-(4-{[4-(2-methylimidazo[1,2-a]pyridin-3-yl)pyrimidin-2-yl]amino}phenyl)ethanone] | < 0.5
10 | Cc1nc2ccccn2c1-c1ccnc(Nc2cccc(N(C)C)c2)n1 [Cpd 118, N,N-dimethyl-N′-[4-(2-methylimidazo[1,2-a]pyridin-3-yl)pyrimidin-2-yl]benzene-1,3-diamine] | < 0.5
11 | Cc1nc2ccccn2c1-c1ccnc(Nc2ccc(I)cc2)n1 [Cpd 119, N-(4-iodophenyl)-4-(2-methylimidazo[1,2-a]pyridin-3-yl)pyrimidin-2-amine] | < 0.5
12 | Cc1nc2ncccn2c1-c1ccnc(Nc2ccc(I)cc2)n1 [Cpd 120, N-(4-iodophenyl)-4-(2-methylimidazo[1,2-a]pyrimidin-3-yl)pyrimidin-2-amine] | < 0.5
13 | Cc1nc2ncccn2c1-c1nc(Nc2ccc(Br)cc2)sc1C [Cpd 121, N-(4-bromophenyl)-5-methyl-4-(2-methylimidazo[1,2-a]pyrimidin-3-yl)-1,3-thiazol-2-amine] | < 0.5
14 | Cc1nc2ncccn2c1-c1nc(Nc2ccc(I)cc2)sc1C [Cpd 122, N-(4-iodophenyl)-5-methyl-4-(2-methylimidazo[1,2-a]pyrimidin-3-yl)-1,3-thiazol-2-amine] | < 0.5

Continued, values first:

Row | IC50 [µM] | Structure (SMILES)
15 | < 0.5 | CCc1ccc(Nc2nc(-c3c(C)nc4ccc(Cl)cn34)cs2)cc1 [Cpd 90, 4-(6-chloro-2-methylimidazo[1,2-a]pyridin-3-yl)-N-(4-ethylphenyl)-1,3-thiazol-2-amine]
16 | < 0.5 | Cc1nc2ccc(Cl)cn2c1-c1csc(Nc2ccc(C(C)C)cc2)n1 [Cpd 91, 4-(6-chloro-2-methylimidazo[1,2-a]pyridin-3-yl)-N-[4-(propan-2-yl)phenyl]-1,3-thiazol-2-amine]
17 | < 0.5 | Cc1nc2ccc(Cl)cn2c1-c1csc(Nc2ccc(O)cc2)n1 [Cpd 92, 4-{[4-(6-chloro-2-methylimidazo[1,2-a]pyridin-3-yl)-1,3-thiazol-2-yl]amino}phenol]
18 | < 0.5 | COCCOc1ccc(Nc2nc(-c3c(C)nc4ccc(Cl)cn34)cs2)cc1 [Cpd 93, 4-(6-chloro-2-methylimidazo[1,2-a]pyridin-3-yl)-N-[4-(2-methoxyethoxy)phenyl]-1,3-thiazol-2-amine]
19 | < 0.5 | Cc1nc2c(O)cccn2c1-c1csc(Nc2ccc3c(c2)OCO3)n1 [Cpd 94, 3-[2-(1,3-benzodioxol-5-ylamino)-1,3-thiazol-4-yl]-2-methylimidazo[1,2-a]pyridin-8-ol]
20 | < 0.5 | COc1ccc(Nc2nc(-c3c(C)nc4ccc(Cl)cn34)cs2)cc1Cl [Cpd 95, N-(3-chloro-4-methoxyphenyl)-4-(6-chloro-2-methylimidazo[1,2-a]pyridin-3-yl)-1,3-thiazol-2-amine]
21 | < 0.5 | COc1ccc(Nc2nc(-c3c(C)nc4ccc(Cl)cn34)cs2)cc1F [Cpd 96, 4-(6-chloro-2-methylimidazo[1,2-a]pyridin-3-yl)-N-(3-fluoro-4-methoxyphenyl)-1,3-thiazol-2-amine]
22 | < 0.5 | CC(=O)Nc1ccc(Nc2nc(-c3c(C)nc4ccc(Cl)cn34)cs2)cc1 [Cpd 97, N-(4-{[4-(6-chloro-2-methylimidazo[1,2-a]pyridin-3-yl)-1,3-thiazol-2-yl]amino}phenyl)acetamide]
23 | < 0.5 | Cc1nc2ccc(Cl)cn2c1-c1csc(Nc2c(Cl)cccc2Cl)n1 [Cpd 98, 4-(6-chloro-2-methylimidazo[1,2-a]pyridin-3-yl)-N-(2,6-dichlorophenyl)-1,3-thiazol-2-amine]
24 | < 0.5 | CC(=O)c1ccc(Nc2nc(-c3c(C)nc4ccc(Br)cn34)cs2)cc1 [Cpd 99, 1-(4-{[4-(6-bromo-2-methylimidazo[1,2-a]pyridin-3-yl)-1,3-thiazol-2-yl]amino}phenyl)ethanone]
25 | < 0.5 | Cc1nc2ccc(Br)cn2c1-c1csc(Nc2ccc(Cl)cc2)n1 [Cpd 100, 4-(6-bromo-2-methylimidazo[1,2-a]pyridin-3-yl)-N-(4-chlorophenyl)-1,3-thiazol-2-amine]
26 | < 0.5 | Cc1nc2ccc(Br)cn2c1-c1csc(Nc2ccc(I)cc2)n1 [Cpd 101, 4-(6-bromo-2-methylimidazo[1,2-a]pyridin-3-yl)-N-(4-iodophenyl)-1,3-thiazol-2-amine]
27 | < 0.5 | Cc1nc2ccc(Br)cn2c1-c1csc(Nc2ccc(Br)cc2)n1 [Cpd 102, 4-(6-bromo-2-methylimidazo[1,2-a]pyridin-3-yl)-N-(4-bromophenyl)-1,3-thiazol-2-amine]
28 | < 0.5 | COc1ccc(Nc2nc(-c3c(C)nc4ccc(Br)cn34)cs2)cc1Cl [Cpd 103, 4-(6-bromo-2-methylimidazo[1,2-a]pyridin-3-yl)-N-(3-chloro-4-methoxyphenyl)-1,3-thiazol-2-amine]
29 | < 0.5 | COc1ccc(Nc2nc(-c3c(C)nc4ccc(Br)cn34)cs2)cc1F [Cpd 104, 4-(6-bromo-2-methylimidazo[1,2-a]pyridin-3-yl)-N-(3-fluoro-4-methoxyphenyl)-1,3-thiazol-2-amine]
30 | < 0.5 | COc1ccc(Nc2nc(-c3cnc4ccc(Cl)cn34)cs2)cc1 [Cpd 105, 4-(6-chloroimidazo[1,2-a]pyridin-3-yl)-N-(4-methoxyphenyl)-1,3-thiazol-2-amine]
31 | < 0.5 | CN(C)c1ccc(Nc2nc(-c3cnc4ccc(Cl)cn34)cs2)cc1 [Cpd 106, N′-[4-(6-chloroimidazo[1,2-a]pyridin-3-yl)-1,3-thiazol-2-yl]-N,N-dimethylbenzene-1,4-diamine]
32 | < 0.5 | CC(=O)c1ccc(Nc2nc(-c3cnc4ccc(Cl)cn34)cs2)cc1 [Cpd 107, 1-(4-{[4-(6-chloroimidazo[1,2-a]pyridin-3-yl)-1,3-thiazol-2-yl]amino}phenyl)ethanone]
33 | < 0.5 | Clc1ccc2ncc(-c3csc(Nc4ccc(I)cc4)n3)n2c1 [Cpd 108, 4-(6-chloroimidazo[1,2-a]pyridin-3-yl)-N-(4-iodophenyl)-1,3-thiazol-2-amine]
